{
  "source": "patent US10689367B2",
  "about": "“Triazole pyridyl compounds as agonists of the APJ receptor” (AMGEN INC., priority 2016, dated 2020)",
  "data": [
    {"molecular_target": "human APJ receptor (Homo sapiens (Human), UniProt P35414)", "sequence (P35414 whole entry)": "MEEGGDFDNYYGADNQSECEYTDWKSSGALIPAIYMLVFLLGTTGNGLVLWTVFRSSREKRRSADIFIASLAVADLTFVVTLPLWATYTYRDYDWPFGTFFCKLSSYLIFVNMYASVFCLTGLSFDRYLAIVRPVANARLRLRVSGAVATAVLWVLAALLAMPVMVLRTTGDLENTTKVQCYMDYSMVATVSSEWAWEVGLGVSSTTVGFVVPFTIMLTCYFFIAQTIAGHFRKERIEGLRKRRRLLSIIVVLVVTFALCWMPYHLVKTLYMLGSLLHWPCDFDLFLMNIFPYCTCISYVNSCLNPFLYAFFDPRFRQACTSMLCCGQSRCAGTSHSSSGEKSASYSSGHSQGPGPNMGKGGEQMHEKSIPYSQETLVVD", "test": "[35S]GTPγS binding assay on membranes from CHO cells stably expressing human APJ receptor", "format": "biochemical", "settings": "membranes of CHO cells stably expressing human APJ receptor, read-out: Activity hAPJ SPA EC50 IP", "in_short": "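[35S]GTPγS binding measured on membranes from CHO cells stably expressing FLAG-tagged human APJ, with GDP, MgCl2 and NaCl levels optimized beforehand. Incubation 90 min at RT, imager read-out; EC50 from non-linear regression, averaged over several independent experiments.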", "units": {"EC50": "nM"}, "values": [
      {"smiles": "CC[C@@H](c1c(C)noc1C)n1c(NS(=O)(=O)[C@@H](C)[C@H](OC)c2ncc(Cl)cn2)nnc1-c1cccc(OC)n1", "note": "(single isomer, unassigned) [Example 219.0, (1R,2S)-1-(5-chloro-2-pyrimidinyl)-N-(4-((1R)-1-(3,5-dimethyl-1,2-oxazol-4-yl)propyl)-5-(6-methoxy-2-pyridinyl)-4H-1,2,4-triazol-3-yl)-1-methoxy-2-propanesulfonamide or (1R,2S)-1-(5-chloro-2-pyrimidinyl)-N-(4-((1S)-1-(3,5-dimethyl-1,2-oxazol-4-yl)propyl)-5-(6-methoxy-2-pyridinyl)-4H-1,2,4-triazol-3-yl)-1-methoxy-2-propanesulfonamide]", "EC50": 1.8},
      {"smiles": "CC[C@@H](c1c(C)noc1C)n1c(NS(=O)(=O)[C@@H](C)[C@@H](OC(C)C)c2ncc(C)cn2)nnc1-c1cccc(OC)n1", "note": "(single isomer, unassigned) [Example 220.0, (1S,2S)-N-(4-((1S)-1-(3,5-dimethyl-1,2-oxazol-4-yl)propyl)-5-(6-methoxy-2-pyridinyl)-4H-1,2,4-triazol-3-yl)-1-(5-methyl-2-pyrimidinyl)-1-(2-propanyloxy)-2-propanesulfonamide or (1S,2S)-N-(4-((1R)-1-(3,5-dimethyl-1,2-oxazol-4-yl)propyl)-5-(6-methoxy-2-pyridinyl)-4H-1,2,4-triazol-3-yl)-1-(5-methyl-2-pyrimidinyl)-1-(2-propanyloxy)-2-propanesulfonamide]", "EC50": 55},
      {"smiles": "CC[C@@H](c1c(C)noc1C)n1c(NS(=O)(=O)[C@@H](C)[C@@H](OC(C)C)c2ncc(C)cn2)nnc1-c1cccc(OC)n1", "note": "(single isomer, unassigned) [Example 221.0, (1S,2S)-N-(4-((1R)-1-(3,5-dimethyl-1,2-oxazol-4-yl)propyl)-5-(6-methoxy-2-pyridinyl)-4H-1,2,4-triazol-3-yl)-1-(5-methyl-2-pyrimidinyl)-1-(2-propanyloxy)-2-propanesulfonamide or (1S,2S)-N-(4-((1S)-1-(3,5-dimethyl-1,2-oxazol-4-yl)propyl)-5-(6-methoxy-2-pyridinyl)-4H-1,2,4-triazol-3-yl)-1-(5-methyl-2-pyrimidinyl)-1-(2-propanyloxy)-2-propanesulfonamide]", "EC50": 14},
      {"smiles": "CC[C@@H](c1c(C)noc1C)n1c(NS(=O)(=O)[C@@H](C)[C@H](OC)c2cnc(C)cn2)nnc1-c1cccc(OC)n1", "note": "(single isomer, unassigned) [Example 222.0, (1R,2S)-N-(4-((1S)-1-(3,5-dimethyl-1,2-oxazol-4-yl)propyl)-5-(6-methoxy-2-pyridinyl)-4H-1,2,4-triazol-3-yl)-1-methoxy-1-(5-methyl-2-pyrazinyl)-2-propanesulfonamide or (1R,2S)-N-(4-((1R)-1-(3,5-dimethyl-1,2-oxazol-4-yl)propyl)-5-(6-methoxy-2-pyridinyl)-4H-1,2,4-triazol-3-yl)-1-methoxy-1-(5-methyl-2-pyrazinyl)-2-propanesulfonamide]", "EC50": 58},
      {"smiles": "CC[C@@H](c1c(C)noc1C)n1c(NS(=O)(=O)[C@@H](C)[C@H](OC)c2cnc(C)cn2)nnc1-c1cccc(OC)n1", "note": "(single isomer, unassigned) [Example 223.0, (1R,2S)-N-(4-((1R)-1-(3,5-dimethyl-1,2-oxazol-4-yl)propyl)-5-(6-methoxy-2-pyridinyl)-4H-1,2,4-triazol-3-yl)-1-methoxy-1-(5-methyl-2-pyrazinyl)-2-propanesulfonamide or (1R,2S)-N-(4-((1S)-1-(3,5-dimethyl-1,2-oxazol-4-yl)propyl)-5-(6-methoxy-2-pyridinyl)-4H-1,2,4-triazol-3-yl)-1-methoxy-1-(5-methyl-2-pyrazinyl)-2-propanesulfonamide]", "EC50": 32},
      {"smiles": "CC[C@@H](c1c(C)noc1C)n1c(NS(=O)(=O)[C@@H](C)[C@H](C)c2ncc(Cl)cn2)nnc1-c1cccc(OC)n1", "note": "(single isomer, unassigned) [Example 224.0, (2S,3R)-3-(5-chloro-2-pyrimidinyl)-N-(4-((1S)-1-(3,5-dimethyl-1,2-oxazol-4-yl)propyl)-5-(6-methoxy-2-pyridinyl)-4H-1,2,4-triazol-3-yl)-2-butanesulfonamide or (2S,3R)-3-(5-chloro-2-pyrimidinyl)-N-(4-((1R)-1-(3,5-dimethyl-1,2-oxazol-4-yl)propyl)-5-(6-methoxy-2-pyridinyl)-4H-1,2,4-triazol-3-yl)-2-butanesulfonamide]", "EC50": 13},
      {"smiles": "CC[C@@H](c1c(C)noc1C)n1c(NS(=O)(=O)[C@@H](C)[C@H](C)c2ncc(Cl)cn2)nnc1-c1cccc(OC)n1", "note": "(single isomer, unassigned) [Example 225.0, (2S,3R)-3-(5-chloro-2-pyrimidinyl)-N-(4-((1R)-1-(3,5-dimethyl-1,2-oxazol-4-yl)propyl)-5-(6-methoxy-2-pyridinyl)-4H-1,2,4-triazol-3-yl)-2-butanesulfonamide or (2S,3R)-3-(5-chloro-2-pyrimidinyl)-N-(4-((1S)-1-(3,5-dimethyl-1,2-oxazol-4-yl)propyl)-5-(6-methoxy-2-pyridinyl)-4H-1,2,4-triazol-3-yl)-2-butanesulfonamide]", "EC50": 5.1},
      {"smiles": "COc1cccc(-c2nnc(NS(=O)(=O)[C@@H](C)[C@H](C)c3ncc(Cl)cn3)n2[C@H](c2conc2C)C2CC2)n1", "note": "(single isomer, unassigned) [Example 229.0, (2S,3R)-3-(5-chloro-2-pyrimidinyl)-N-(4-((S)-cyclopropyl(3-methyl-1,2-oxazol-4-yl)methyl)-5-(6-methoxy-2-pyridinyl)-4H-1,2,4-triazol-3-yl)-2-butanesulfonamide or (2S,3R)-3-(5-chloro-2-pyrimidinyl)-N-(4-((R)-cyclopropyl(3-methyl-1,2-oxazol-4-yl)methyl)-5-(6-methoxy-2-pyridinyl)-4H-1,2,4-triazol-3-yl)-2-butanesulfonamide]", "EC50": 1.2},
      {"smiles": "COc1cccc(-c2nnc(NS(=O)(=O)[C@@H](C)[C@@H](OC(C)C)c3ncc(C)cn3)n2[C@H](c2conc2C)C2CC2)n1", "note": "(single isomer, unassigned) [Example 230.0, (1S,2S)-N-(4-((S)-cyclopropyl(3-methyl-1,2-oxazol-4-yl)methyl)-5-(6-methoxy-2-pyridinyl)-4H-1,2,4-triazol-3-yl)-1-(5-methyl-2-pyrimidinyl)-1-(2-propanyloxy)-2-propanesulfonamide or (1S,2S)-N-(4-((R)-cyclopropyl(3-methyl-1,2-oxazol-4-yl)methyl)-5-(6-methoxy-2-pyridinyl)-4H-1,2,4-triazol-3-yl)-1-(5-methyl-2-pyrimidinyl)-1-(2-propanyloxy)-2-propanesulfonamide]", "EC50": 0.5},
      {"smiles": "CC[C@@H](c1conc1C)n1c(NS(=O)(=O)[C@@H](C)[C@H](C)c2ncc(Cl)cn2)nnc1-c1cccc(OC)n1", "note": "(single isomer, unassigned) [Example 231.0, (2S,3R)-3-(5-chloro-2-pyrimidinyl)-N-(5-(6-methoxy-2-pyridinyl)-4-((1S)-1-(3-methyl-1,2-oxazol-4-yl)propyl)-4H-1,2,4-triazol-3-yl)-2-butanesulfonamide or (2S,3R)-3-(5-chloro-2-pyrimidinyl)-N-(5-(6-methoxy-2-pyridinyl)-4-((1R)-1-(3-methyl-1,2-oxazol-4-yl)propyl)-4H-1,2,4-triazol-3-yl)-2-butanesulfonamide]", "EC50": 21},
      {"smiles": "CC[C@@H](c1conc1C)n1c(NS(=O)(=O)[C@@H](C)[C@H](C)c2ncc(Cl)cn2)nnc1-c1cccc(OC)n1", "note": "(single isomer, unassigned) [Example 232.0, (2S,3R)-3-(5-chloro-2-pyrimidinyl)-N-(5-(6-methoxy-2-pyridinyl)-4-((1R)-1-(3-methyl-1,2-oxazol-4-yl)propyl)-4H-1,2,4-triazol-3-yl)-2-butanesulfonamide or (2S,3R)-3-(5-chloro-2-pyrimidinyl)-N-(5-(6-methoxy-2-pyridinyl)-4-((1S)-1-(3-methyl-1,2-oxazol-4-yl)propyl)-4H-1,2,4-triazol-3-yl)-2-butanesulfonamide]", "EC50": 1.5},
      {"smiles": "COc1cccc(-c2nnc(NS(=O)(=O)[C@@H](C)[C@@H](OC(C)C)c3ncc(C)cn3)n2[C@@H](C)c2ncn(C)n2)n1", "note": "(single isomer, unassigned) [Example 233.0, (1S,2S)-N-(5-(6-methoxy-2-pyridinyl)-4-((1S)-1-(1-methyl-1H-1,2,4-triazol-3-yl)ethyl)-4H-1,2,4-triazol-3-yl)-1-(5-methyl-2-pyrimidinyl)-1-(2-propanyloxy)-2-propanesulfonamide or (1S,2S)-N-(5-(6-methoxy-2-pyridinyl)-4-((1R)-1-(1-methyl-1H-1,2,4-triazol-3-yl)ethyl)-4H-1,2,4-triazol-3-yl)-1-(5-methyl-2-pyrimidinyl)-1-(2-propanyloxy)-2-propanesulfonamide]", "EC50": 10},
      {"smiles": "COc1cccc(-c2nnc(NS(=O)(=O)[C@@H](C)[C@@H](OC(C)C)c3ncc(C)cn3)n2[C@@H](C)c2ncn(C)n2)n1", "note": "(single isomer, unassigned) [Example 234.0, (1S,2S)-N-(5-(6-methoxy-2-pyridinyl)-4-((1R)-1-(1-methyl-1H-1,2,4-triazol-3-yl)ethyl)-4H-1,2,4-triazol-3-yl)-1-(5-methyl-2-pyrimidinyl)-1-(2-propanyloxy)-2-propanesulfonamide or (1S,2S)-N-(5-(6-methoxy-2-pyridinyl)-4-((1S)-1-(1-methyl-1H-1,2,4-triazol-3-yl)ethyl)-4H-1,2,4-triazol-3-yl)-1-(5-methyl-2-pyrimidinyl)-1-(2-propanyloxy)-2-propanesulfonamide]", "EC50": 84},
      {"smiles": "COc1cccc(-c2nnc(NS(=O)(=O)[C@@H](C)[C@H](OC)c3ncc(Cl)cn3)n2[C@@H](C)c2ncn(C)n2)n1", "note": "(single isomer, unassigned) [Example 235.0, (1R,2S)-1-(5-chloro-2-pyrimidinyl)-1-methoxy-N-(5-(6-methoxy-2-pyridinyl)-4-((1S)-1-(1-methyl-1H-1,2,4-triazol-3-yl)ethyl)-4H-1,2,4-triazol-3-yl)-2-propanesulfonamide or (1R,2S)-1-(5-chloro-2-pyrimidinyl)-1-methoxy-N-(5-(6-methoxy-2-pyridinyl)-4-((1R)-1-(1-methyl-1H-1,2,4-triazol-3-yl)ethyl)-4H-1,2,4-triazol-3-yl)-2-propanesulfonamide]", "EC50": 100}
    ]}
  ]
}
